pIC50: −log10 of the molar value.

Test [1] concerns the target Full-length PRMT5 enzyme co-expressed with MEP50 (Homo sapiens (Human), UniProt O14744). Briefly: PRMT5 Biochemical Assay. The following applies: 200 nM peptide substrate, 1 μM S-Adenosyl methionine, 4 hours at 37° C., Transcreener EPIGEN fluorescence polarisation. From the text:
Compounds of the invention may be tested for in vitro activity in the following assay: A histone H4 derived peptide is used as substrate (amino acid sequence: […]NH2). Full-length PRMT5 enzyme (NCBI Reference sequence NP_006100.2) was co-expressed with Hiss-MEP50 in insect cells and purified via Nickel immobilized metal affinity and gel filtration chromatography (“the enzyme”).
The […] assay reactions are run in Greiner brand black 384-well low volume plates. All reactions contained assay buffer (phosphate buffered saline, 0.01% (v/v) Tween-20, 0.01% (w/v) albumin from chicken egg white, 1 mM dithiothreitol, 200 nM peptide substrate, 1 μM S-Adenosyl methionine, and 15 ng/reaction enzyme, with the enzyme being omitted from negative control reactions. Compounds were added in a volume of 100 nL from dilution series prepared in DMSO, positive and negative control reactions receiving the same volume DMSO without compound. The plates were sealed with adhesive seals and incubated for 4 hours at 37° C. Reaction progress was measured using the Transcreener™ EPIGEN methyltransferase assay (BellBrook Labs, Madison, Wis.) as recommended by the manufacturer. To each reaction 2 μL detection mix were added, containing coupling enzymes, fluorescence polarisation tracer, and AMP antibody. […]
Background: In fluorescence polarisation assays a small probe gives low polarisation when free and higher when bound to something large.

The test system of test [2] is symmetrical dimethylation of arginine (Histone H4R3) in cell line TE11. Briefly: PRMT5 Biomarker Assay (Di-Methyl Histone H4R3 ELISA). The class given is cell-based. The following applies: Homo sapiens, TE-11; TE11 cells, 72 h incubation, EpiQuik Global Di-Methyl Histone H4R3 ELISA, corrected for total protein. Here is the method:
Compounds of the invention may be tested for potency to inhibit symmetrical […] of arginine in the following assay:
The cell line TE11 was seeded at a density of 12,000 cells per well in 96 well tissue culture plates in DME medium and 10% foetal bovine serum, and allowed to adhere overnight under standard culture conditions (37° C., 5% CO2). Compound dilutions prepared in DMSO were added to the medium, with negative control wells reserved for treatment with DMSO only and positive controls receiving a potent PRMT5 inhibitor. The concentration of the inhibitor had been previously determined to give maximum inhibition of the methylation. After incubation for 72 h, cells were washed twice in ice-cold PBS, lysed in lysis buffer (20 mM Tris pH 7.4, 135 mM NaCl, 1.5 mM MgCl2, 1 mM EGTA, 10% glycerol and 1% Triton-X100), centrifuged at 15,000×g and the supernatants collected for subsequent analysis. The methylation level was determined using the EpiQuik™ Global Di-Methyl Histone H4R3 Quantification ELISA Kit (Epigentek, Farmingdale, N.Y.) as per the manufacturer's recommendations; in parallel the total protein amount in the lysate was quantified using a Lowry protein assay. […]

The subject of test [3] is symmetrical dimethylation of arginine (Histone H4 Arginine 3) in cell line TE11. Nature of the test: Revised PRMT5 Biomarker Assay. The class given is cell-based. As to conditions: Homo sapiens, TE-11; TE11 cells, 72 hours incubation, anti-Di-Methyl Histone H4 Arginine 3 immunofluorescence, plate-reader based. Here is the method: Compounds of the invention may be tested for potency to inhibit symmetrical dimethylation of arginine in the following assay:
The cell line TE11 was seeded at a density of 6,000 cells per well in 96 well optical quality tissue culture plates in DME medium and 10% foetal bovine serum, and allowed to adhere for 5 hours under standard culture conditions (37 degree Celsius, 5% CO2). Compound dilutions prepared in DMSO were added to the medium, with negative control wells reserved for treatment with DMSO only and positive controls receiving a potent PRMT5 inhibitor compound at 1 μM concentration. After incubation for 72 hours, the cells were fixed with 3.7% formaldehyde in PBS for 30 minutes at room temperature, washed with phosphate buffer saline and blocked with Odyssey blocking buffer (LI-COR, Lincoln, Nebr.). Rabbit anti-Di-Methyl Histone H4 Arginine 3 specific antibody (Epigentek) in Odyssey blocking buffer was added and incubated for 14 hours at 4 degree Celsius. After washing, anti-rabbit secondary antibody labelled with Alexa647 dye (LifeTechnologies) and Hoechst 33342 (1 μg/mL, SigmaAldrich) were added for 1 hour incubation. Plates were washed and read on a PerkinElmer Envision 2103 in fluorescence intensity scanning mode (24 scans across the well area). The methylation level information was corrected for the number of cells as expressed by the Hoechst 33342 stain, converted to percent inhibition relative to controls on the same plate and the data fitted against a four-parameter logistic model to determine the 50% inhibitory concentration (IC50 plate-reader based). Alternatively, the plates were imaged on a PerkinElmer Phenix high content imaging platform. Using a Columbus image analysis pipeline, individual nuclei were located by Hoechst 33342 stain and the methylation level was calculated from the Alexa647-related intensity in the same area. The resulting mean intensity per cell was directly converted to percent inhibition as outlined above (IC50, imager based)).

Sequence of Full-length PRMT5 enzyme co-expressed with MEP50 (O14744 whole entry): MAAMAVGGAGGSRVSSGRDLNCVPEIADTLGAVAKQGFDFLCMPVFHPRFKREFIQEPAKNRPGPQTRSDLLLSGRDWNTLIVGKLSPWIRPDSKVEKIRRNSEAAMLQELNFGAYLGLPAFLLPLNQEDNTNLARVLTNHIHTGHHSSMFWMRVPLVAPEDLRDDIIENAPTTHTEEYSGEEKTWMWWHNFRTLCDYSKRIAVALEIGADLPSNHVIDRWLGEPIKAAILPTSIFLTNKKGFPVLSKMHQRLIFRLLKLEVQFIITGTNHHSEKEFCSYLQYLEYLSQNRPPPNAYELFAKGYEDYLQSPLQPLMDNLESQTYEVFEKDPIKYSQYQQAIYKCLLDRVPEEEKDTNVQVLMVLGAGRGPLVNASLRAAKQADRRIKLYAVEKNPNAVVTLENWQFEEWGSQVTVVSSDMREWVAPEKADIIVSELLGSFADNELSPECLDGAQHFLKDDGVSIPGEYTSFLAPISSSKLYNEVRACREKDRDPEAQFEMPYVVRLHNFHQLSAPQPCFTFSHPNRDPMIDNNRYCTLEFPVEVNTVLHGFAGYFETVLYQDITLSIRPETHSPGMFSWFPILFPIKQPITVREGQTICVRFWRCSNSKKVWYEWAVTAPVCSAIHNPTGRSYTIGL
Sequence of Full-length PRMT5 enzyme co-expressed with MEP50 (Q9BQA1 whole entry partner): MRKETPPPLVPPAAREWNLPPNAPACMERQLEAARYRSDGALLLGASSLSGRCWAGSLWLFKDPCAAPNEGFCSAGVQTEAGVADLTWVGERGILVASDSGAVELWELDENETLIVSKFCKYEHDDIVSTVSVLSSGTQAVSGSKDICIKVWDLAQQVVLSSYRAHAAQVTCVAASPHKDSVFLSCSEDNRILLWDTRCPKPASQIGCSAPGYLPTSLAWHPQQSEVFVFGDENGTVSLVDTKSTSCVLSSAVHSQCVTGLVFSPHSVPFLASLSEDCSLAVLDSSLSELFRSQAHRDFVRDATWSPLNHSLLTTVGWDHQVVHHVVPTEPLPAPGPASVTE

The pIC50 is the IC50 on a negative log10 scale, so that one unit is a factor of ten. A lower pIC50 goes with a large IC50. Broadly, the IC50 is the concentration that inhibits the measured activity by half. As for `O=C(NCCC(O)CN1CCc2ccccc2C1)c1ccc(Cl)cc1` (stereo not drawn) [Compound 1, 4-Chloro-N-(4-(3,4-dihydroisoquinolin-2(1H)-yl)-3-hydroxybutyl)benzamide], the negative logarithm of the IC50 (pIC50) was 6.44 in test [1] and 7.39 in test [2]. In test [3], the concentration for half-maximal inhibition (IC50) was 0.318 µM.

Values taken from patent US10647708B2, “Tetrahydroisoquinoline derived PRMT5-inhibitors” (CTXT PTY LTD, priority 2014, dated 2020).
